The target in the experiment is T1, Recombinant human JARID1B/KDM5B (Homo sapiens, UniProt Q9UGL1).
T1 construct: purchased Active Motif 31432; host or cells: Sf9 insect cells
In words: LANCE Ultra TR-FRET demethylase assay with FLAG-tagged JARID1B. In kind it is biochemical. Particulars: 100 nM compound; 500 nM biotinylated H3K4me3 peptide substrate. From the text: FLAG-tagged JARID1B (also known as KDM5B) protein was screened against more than 170 compounds. For this compound screening, LANCE Ultra time-resolved fluorescence resonance energy transfer (TR-FRET) assay was employed using an europoium (Eu)-labeled antibody that can specifically recognize mono- or dimethylated peptides (H3K4me2/1) and ULight-streptavidin (ULight-SA), a small molecule fluorescent dye. When irradiated at 340 nm, the energy from the Eu donor is transferred to the ULight acceptor dye which, in turn, emits light primarily at 665 nm. The ratio between the intensity of primary emission at 665 nm and that of secondary emission at 590 nm was used to quantify the level of lysine methylation. As JARID1B removes more methyl moieties from tri-methylated substrate peptides (H3K4me3), the ratio increases until the enzyme reaction is terminated. In case, therefore, the compounds disrupt the enzymatic activity completely, the ratio becomes equal to a background value.
Recombinant human JARID1B/KDM5B (accession number NP_006609) of molecular weight 179.9 KDa was expressed in Sf9 insect cells and contains an N-terminal FLAG tag. The enzyme was obtained from Active Motif (Catalog No. 31432). The tri-methylated histone substrate peptide of purity greater than 95% was a synthetic peptide in which the first 21 amino acids correspond to the human histone H3 sequence with three extra amino acids and a biotin motif (GGK-biotin) linked to the C-terminus [sequence: ART-K (Me3)-QTARKSTGGKAPRKQLA-GGK-biotin-OH], (AnaSpec, Fremont, Calif. Catalog. No. ANA-1413). The reference inhibitory compound tranylcypromine (or trans-2-phenylcyclopropylamine hydrochloride, also known as, 2-PCPA) was purchased from Sigma (St. Louis, Mo. Cat. no. P8511). ULight-labeled streptavidin (ULight-SA, Catalog no. TRF0102), Eu-W1024-labeled anti-methyl-Histone H3 Lysine 4 (H3K4me1-2) Antibody (Catalog no. TRF0402), and LANCE detection buffer 10× (Catalog no. CR97-100) were obtained from PerkinElmer (Montreal, Quebec, Canada). The TR-FRET experiments were carried out in white, low-volume 384-wellplates purchased from PerkinElmer (ProxiPlate-384 Plus, Catalog no. 6008280).
The TR-FRET signal was measured in the presence both of the bio-H3K4me3 peptide and FLAG-JARID1B by detecting any H3K4me2/1 peptide produced in the assay system. Assays using only the bio-H3K4me2 peptide were served as a positive control. Robust enzymatic progressions were observed by using JARID1B at concentrations ranging from 10 to 30 nM. In a typical TR-FRET experiment, JARID1B was pre-incubated with or without 20 uM, 1 uM, or 0.1 uM of test-compounds (containing 1% DMSO final) for […]. The enzymatic reactions were initiated by the addition of 500 nM biotinylated H3K4me3 peptide substrate plus 500 uM of 2-OG, 25 uM Fe(II) and 2 mM ascorbate. The reaction buffer also contained 50 mM Hepes (pH7.5), 0.01% (v/v) Tween 20, and 50 mM NaCl. The reaction mixture was incubated for […] at room temperature before reading on an EnVision plate reader (PerkinElmer, Waltham, Mass.).

A value given as a limit tells only on which side of the number the result lay.

T1 sequence (Q9UGL1 whole entry): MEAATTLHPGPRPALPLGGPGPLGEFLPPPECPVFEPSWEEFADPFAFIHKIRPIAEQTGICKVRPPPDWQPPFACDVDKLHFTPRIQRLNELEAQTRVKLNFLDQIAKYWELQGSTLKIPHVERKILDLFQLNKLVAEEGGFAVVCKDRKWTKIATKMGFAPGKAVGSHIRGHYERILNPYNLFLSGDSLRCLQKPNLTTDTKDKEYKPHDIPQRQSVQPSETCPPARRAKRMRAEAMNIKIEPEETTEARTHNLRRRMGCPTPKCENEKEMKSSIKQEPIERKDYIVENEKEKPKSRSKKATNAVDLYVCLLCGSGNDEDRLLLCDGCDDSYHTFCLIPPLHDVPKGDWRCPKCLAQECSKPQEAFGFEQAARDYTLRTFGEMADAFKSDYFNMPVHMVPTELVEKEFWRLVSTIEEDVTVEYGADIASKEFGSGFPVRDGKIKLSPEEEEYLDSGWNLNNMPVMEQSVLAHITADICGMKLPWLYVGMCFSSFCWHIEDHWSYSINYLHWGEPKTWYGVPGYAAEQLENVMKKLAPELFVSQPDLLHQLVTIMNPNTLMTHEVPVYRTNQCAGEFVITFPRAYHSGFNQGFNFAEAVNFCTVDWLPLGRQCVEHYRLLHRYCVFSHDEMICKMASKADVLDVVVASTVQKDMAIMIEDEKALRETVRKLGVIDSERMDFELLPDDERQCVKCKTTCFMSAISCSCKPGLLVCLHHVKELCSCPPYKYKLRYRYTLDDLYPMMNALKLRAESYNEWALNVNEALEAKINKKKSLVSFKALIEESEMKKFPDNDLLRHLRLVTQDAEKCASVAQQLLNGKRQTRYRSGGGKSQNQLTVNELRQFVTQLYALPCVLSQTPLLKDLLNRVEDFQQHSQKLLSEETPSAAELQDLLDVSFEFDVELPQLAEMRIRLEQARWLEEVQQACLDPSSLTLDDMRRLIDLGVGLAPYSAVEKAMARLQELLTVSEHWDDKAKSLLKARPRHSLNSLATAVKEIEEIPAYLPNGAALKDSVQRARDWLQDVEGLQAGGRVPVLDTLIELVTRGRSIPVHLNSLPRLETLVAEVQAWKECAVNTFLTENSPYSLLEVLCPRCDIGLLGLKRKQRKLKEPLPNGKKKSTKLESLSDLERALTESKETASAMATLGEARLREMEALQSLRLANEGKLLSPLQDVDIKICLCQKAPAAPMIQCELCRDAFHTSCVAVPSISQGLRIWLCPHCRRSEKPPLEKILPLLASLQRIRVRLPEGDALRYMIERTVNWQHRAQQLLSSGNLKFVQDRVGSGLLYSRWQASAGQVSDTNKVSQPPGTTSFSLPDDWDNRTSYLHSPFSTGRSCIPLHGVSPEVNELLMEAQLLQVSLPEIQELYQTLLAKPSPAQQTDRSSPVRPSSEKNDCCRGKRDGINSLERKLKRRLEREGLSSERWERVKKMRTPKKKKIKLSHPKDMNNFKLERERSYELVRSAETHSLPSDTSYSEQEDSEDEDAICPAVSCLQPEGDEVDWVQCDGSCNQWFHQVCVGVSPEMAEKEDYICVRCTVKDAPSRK

Regarding `O=C(CNCc1nccc2c(=O)[nH]c(COc3ccc(F)c(Cl)c3)nc12)N[C@H]1CC[C@H](N2CCCC2)O1` (relative stereo) [Example 233, 2-(((2-((3-chloro-4-fluorophenoxy)methyl)-4-oxo-3,4-dihydropyrido[3,4-d]pyrimidin-8-yl)methyl)amino)-N-(trans-5-(pyrrolidin-1-yl)tetrahydrofuran-2-yl)acetamide], the inhibition (usually the relative decrease from the control value, in per cent) at 0.1 µM was more than 50%.

`COc1cc(OCc2nc3cnccc3c(=O)[nH]2)cc(OC)c1OC` [Example 39, 2-((3,4,5-trimethoxyphenoxy)methyl)pyrido[3,4-d]pyrimidin-4(3H)-one]: the inhibition at 0.1 µM is less than 20%.

For the molecule `O=C(NCCN1CCOCC1)c1cccc(OCc2nc3cnccc3c(=O)[nH]2)c1` [Example 40, N-(2-morpholinoethyl)-3-((4-oxo-3,4-dihydropyrido[3,4-d]pyrimidin-2-yl)methoxy)benzamide], the inhibition at 0.1 µM was less than 20%.

Consider `O=c1[nH]c(COc2cccc(CNCc3ccccc3)c2)nc2cnccc12` [Example 42, 2-((3-((benzylamino)methyl)phenoxy)methyl)pyrido[3,4-d]pyrimidin-4(3H)-one], for which the inhibition at 0.1 µM is less than 20%.

As for `CCCOC1CCN(Cc2cccc(OCc3nc4cnccc4c(=O)[nH]3)c2)CC1` [Example 43, 2-((3-((4-propoxypiperidin-1-yl)methyl)phenoxy)methyl)pyrido[3,4-d]pyrimidin-4(3H)-one], the inhibition at 0.1 µM was in the range of 20 to 50%.

With `O=c1[nH]c(COc2cccc(CNC3CCOCC3)c2)nc2cnccc12` [Example 44, 2-((3-(((tetrahydro-2H-pyran-4-yl)amino)methyl)phenoxy)methyl)pyrido[3,4-d]pyrimidin-4(3H)-one], the inhibition at 0.1 µM is less than 20%.

Turning to `O=c1[nH]c(COc2cccc(CNCCN3CCOCC3)c2)nc2cnccc12` [Example 45, 2-((3-(((2-morpholinoethyl)amino)methyl)phenoxy)methyl)pyrido[3,4-d]pyrimidin-4(3H)-one], the inhibition at 0.1 µM was less than 20%.

For `O=C(NCCC1CCNCC1)c1cc(OCc2nc3cnccc3c(=O)[nH]2)ccc1Cl` [Example 46, 2-chloro-5-((4-oxo-3,4-dihydropyrido[3,4-d]pyrimidin-2-yl)methoxy)-N-(2-(piperidin-4-yl)ethyl)benzamide], the inhibition at 0.1 µM is 20 to 50%.

Consider `O=c1[nH]cnc2c(CNCC3CCCCC3)nccc12` [Example 85, 8-(((cyclohexylmethyl)amino)methyl)pyrido[3,4-d]pyrimidin-4(3H)-one], for which the inhibition at 0.1 µM was less than 20%.

Regarding `CCN(CC)CCCCNCc1nccc2c(=O)[nH]cnc12` [Example 86, 8-(((4-(diethylamino)butyl)amino)methyl)pyrido[3,4-d]pyrimidin-4(3H)-one], the inhibition at 0.1 µM was less than 20%.

Regarding `O=C1CCCN1CCCNCc1nccc2c(=O)[nH]cnc12` [Example 88, 8-(((3-(2-oxopyrrolidin-1-yl)propyl)amino)methyl)pyrido[3,4-d]pyrimidin-4(3H)-one], the inhibition at 0.1 µM was less than 20%.

For the molecule `CN1CCC(CNCc2nccc3c(=O)[nH]cnc23)C1` (centres unmarked) [Example 92, 8-((((1-methylpyrrolidin-3-yl)methyl)amino)methyl)pyrido[3,4-d]pyrimidin-4(3H)-one], the inhibition at 0.1 µM is 20 to 50%.

`O=c1[nH]cnc2c(CNCC3CCNCC3)nccc12` [Example 93, 8-(((piperidin-4-ylmethyl)amino)methyl)pyrido[3,4-d]pyrimidin-4(3H)-one]: the inhibition at 0.1 µM is 20 to 50%.

As for `CC(NCc1nccc2c(=O)[nH]cnc12)C1CCNCC1` (centres unmarked) [Example 94, 8-(((1-(piperidin-4-yl)ethyl)amino)methyl)pyrido[3,4-c]pyrimidin-4(3H)-one], the inhibition at 0.1 µM is less than 20%.

Consider `CN1CCC(CNCc2nccc3c(=O)[nH]cnc23)CC1` [Example 95, 8-((((1-methylpiperidin-4-yl)methyl)amino)methyl)pyrido[3,4-d]pyrimidin-4(3H)-one], for which the inhibition at 0.1 µM lay within 20 to 50%.

`O=c1[nH]cnc2c(CNCC3CCN(Cc4ccccc4)CC3)nccc12` [Example 96, 8-((((1-benzylpiperidin-4-yl)methyl)amino)methyl)pyrido[3,4-d]pyrimidin-4(3H)-one]: the inhibition at 0.1 µM lay within 20 to 50%.

Turning to `CN1CCC(N2CCC(CNCc3nccc4c(=O)[nH]cnc34)CC2)CC1` [Example 97, 8-((((1′-methyl-[1,4′-bipiperidin]-4-yl)methyl)amino)methyl)pyrido[3,4-d]pyrimidin-4(3H)-one], the inhibition at 0.1 µM lay within 20 to 50%.

In the case of `O=c1[nH]cnc2c(CNC[C@@H]3CCCNC3)nccc12` [Example 98, (R)-8-(((piperidin-3-ylmethyl)amino)methyl)pyrido[3,4-d]pyrimidin-4(3H)-one], the inhibition at 0.1 µM was less than 20%.

As for `O=c1[nH]cnc2c(CNC[C@H]3CCCNC3)nccc12` [Example 99, (S)-8-(((piperidin-3-ylmethyl)amino)methyl)pyrido[3,4-d]pyrimidin-4(3H)-one], the inhibition at 0.1 µM fell in the range of 20 to 50%.

Regarding `CN1CCCC(CNCc2nccc3c(=O)[nH]cnc23)C1` (centres unmarked) [Example 100, 8-((((1-methylpiperidin-3-yl)methyl)amino)methyl)pyrido[3,4-d]pyrimidin-4(3H)-one], the inhibition at 0.1 µM is more than 50%.

For `O=c1[nH]cnc2c(CNCC3CCCN(Cc4ccccc4)C3)nccc12` (centres unmarked) [Example 101, 8-((((1-benzylpiperidin-3-yl)methyl)amino)methyl)pyrido[3,4-d]pyrimidin-4(3H)-one], the inhibition at 0.1 µM is 20 to 50%.

Turning to `O=c1[nH]c(COc2ccccc2Cl)nc2c(CNCC3CCN(Cc4ccccc4)CC3)nccc12` [Example 105, 8-((((1-benzylpiperidin-4-yl)methyl)amino)methyl)-2-((2-chlorophenoxy)methyl)pyrido[3,4-d]pyrimidin-4(3H)-one], the inhibition at 0.1 µM is more than 50%.

As for `O=c1[nH]c(COc2cccc(Cl)c2)nc2c(CNCC3CCN(Cc4ccccc4)CC3)nccc12` [Example 106, 8-((((1-benzylpiperidin-4-yl)methyl)amino)methyl)-2-((3-chlorophenoxy)methyl)pyrido[3,4-d]pyrimidin-4(3H)-one], the inhibition at 0.1 µM was more than 50%.

Take `O=c1[nH]c(COc2ccc(Cl)cc2)nc2c(CNCC3CCN(Cc4ccccc4)CC3)nccc12` [Example 107, 8-((((1-benzylpiperidin-4-yl)methyl)amino)methyl)-2-((4-chlorophenoxy)methyl)pyrido[3,4-d]pyrimidin-4(3H)-one]: the inhibition at 0.1 µM was more than 50%.

Consider `O=c1[nH]c(COc2ccc(Br)cc2)nc2c(CNCC3CCN(Cc4ccccc4)CC3)nccc12` [Example 108, 8-((((1-benzylpiperidin-4-yl)methyl)amino)methyl)-2-((4-bromophenoxy)methyl)pyrido[3,4-d]pyrimidin-4(3H)-one], for which the inhibition at 0.1 µM was more than 50%.

Consider `O=c1[nH]c(COc2cccnc2)nc2c(CNCC3CCN(Cc4ccccc4)CC3)nccc12` [Example 109, 8-((((1-benzylpiperidin-4-yl)methyl)amino)methyl)-2-((pyridin-3-yloxy)methyl)pyrido[3,4-d]pyrimidin-4(3H)-one], for which the inhibition at 0.1 µM was 20 to 50%.

On to `O=c1[nH]c(COc2ccncc2)nc2c(CNCC3CCN(Cc4ccccc4)CC3)nccc12` [Example 110, 8-((((1-benzylpiperidin-4-yl)methyl)amino)methyl)-2-((pyridin-4-yloxy)methyl)pyrido[3,4-d]pyrimidin-4(3H)-one], for which the inhibition at 0.1 µM was more than 50%.

Regarding `O=c1[nH]c(COc2ccc(Cc3ccccc3)cc2)nc2c(CNCC3CCN(Cc4ccccc4)CC3)nccc12` [Example 111, 2-((4-benzylphenoxy)methyl)-8-((((1-benzylpiperidin-4-yl)methyl)amino)methyl)pyrido[3,4-d]pyrimidin-4(3H)-one], the inhibition at 0.1 µM was more than 50%.

For the molecule `O=c1[nH]c(COc2cc(C(F)(F)F)ccc2Cl)nc2c(CNCC3CCNCC3)nccc12` [Example 112, 2-((2-chloro-5-(trifluoromethyl)phenoxy)methyl)-8-(((piperidin-4-ylmethyl)amino)methyl)pyrido[3,4-d]pyrimidin-4(3H)-one], the inhibition at 0.1 µM was in the range of 20 to 50%.
